What was measured:
[1] = test system: tonic flexion-extension convulsions; assay: Supramaximal electroshock antagonism (suppression of convulsions induced in mice by transcranal electroshock); format: in vivo, Male albino ICR-swiss mice; conditions: Mus musculus, oral gavage, 1 hour after administration, 60 hertz, 25 milliamps, 0.2 second, read-out: Supramaximal Electroshock Antagonism Approximate ED50
Experimental: These examples illustrate the use of the compounds described in Examples 1 and 2 in suppressing convulsions induced in mice by supramaxal shock.
(§1) Male albino ICR-swiss mice fasted for 5-6 hours and weighing 20-26 grams are used in all procedures. The compounds of the Examples 1 and 2 are dissolved in water and administered in dosages of 0.01 cc per gram body weight to groups of twelve mice via oral gavage at the milligrams per kilograms per body weight in the table below. One hour after administration of the compound, the mice are given a transcranal electroshock, 60 hertz, 25 milliamps of 0.2 second duration. This stimulus is approximately 3 times the current required to produce tonic flexion-extension convulsions in 100% of the control mice tested. The animals are then observed, and the number undergoing convulsion noted. When the ED50 is bracketed (at least one dose above and one dose below), an estimate of the ED50 is calculated. The acute LD50 is determined as follows: Groups of four mice each are given selected doses of the test compound and placed in plastic cages with food and water ad lib. Twenty-four hours later, the number of dead mice is noted. When the LD50 is bracketed (at least one dose above and one below) an estimate of the LD50 is calculated. The values for Valproic acid and Dilantin are included in the table for comparison.

[2] = Solubility in water and ethyl alcohol; format: physicochemical; conditions: recrystallized product
in vivo = conditions: mouse; for LD50 at 24 h: oral gavage, mice, read-out: Acute (24 hr.) Toxicity Approximate LD50; for safety ratio (LD50/ED50): po, LD50 (24 hr., mice) divided by ED50 (supramaximal electroshock), read-out: Approximate Safety Ratio LD50/ED50
Experimental: as §1

[3] = treatment of epilepsy, known drug; cited from earlier work

| Structure (SMILES) | ED50 [1] [mg/kg] | solubility in ethyl alcohol [2] | solubility in water [2] | LD50 at 24 h (in vivo) [mg/kg] | safety ratio (LD50/ED50) (in vivo) | serious chronic side effects [3] | dosage needed to be effective relative to toxic dosage [3] |
| --- | --- | --- | --- | --- | --- | --- | --- |
| COc1cc(C(=O)NCCCN(C)C)c(OC)c2ccccc12.Cl [1,4-dimethoxy-N-(3-dimethylaminopropyl)-2-naphthalenecarboxamide hydrochloride] | ~75 | sparingly soluble | sparingly soluble | ~750 | ~10 | – | – |
| O=C1NC(=O)C(c2ccccc2)(c2ccccc2)N1 [Dilantin, phenytoin, reference compound] | ~13 | – | – | ~417 | – | megaloblastic anemia and osteomalacia | – |
| COc1cc(C(=O)NCCN(C)C)c(OC)c2ccccc12.Cl [1,4-dimethoxy-N-(2-dimethylaminoethyl)-2-naphthalene carboxamide hydrochloride] | ~45 | sparingly soluble | sparingly soluble | ~750 | ~17 | – | – |
| CCCC(CCC)C(=O)O [Valproic Acid, reference compound] | ~600 | – | – | ~1420 | – | – | very close to those which are acutely toxic |
